Data set [1] in a line: PAMPA blood-brain barrier permeability. Type of data set: in vitro ADME. The settings on record: PAMPA-BBB, pH 7.4; read-out: BBB Pe. How it is done:
One mg of each compound was solubilized in ethanol (1 mL) in a 5 mL flask, and an additional 500 μL ethanol and 3.5 mL PBS buffer (pH 7.4) were added to this solution. […] 180 μL of a PBS (pH 7.4)/ethanol (70:30) solution were then added to the wells of a 96-well receiver plate, and 5 μL of a porcine brain lipid solution (20 mg/mL in dodecane) to the wells of a 96-well donor plate. […] Afterward, the donor plate was removed, and the content of the receiver plate was transferred to a UV reading plate, which was read using a microplate reader (SpectraMax 5 – Molecular Devices). A reference sample for the internal correction of the microplate reader was prepared using 180 μL of the PBS (pH 7.4)/ethanol (70:30) solution (adapted from ref ). The optical density values obtained from the content of the receiver plate were compared with the ones obtained from readings performed with the initial solutions containing each compound, before their addition to the donor plate. […] The optical density values for the experimental controls were used to determine the equation of the linear regression (optical density vs P e ), which allowed the determination of the P e value of each compound from the optical density values obtained from the receiver plate, using an in-house Microsoft Excel spreadsheet.
In general terms: PAMPA measures passive passage across an artificial lipid membrane.

The nature of data set [2]: Metabolic stability in mouse liver microsomes. The settings on record: pH 7.4, MLM, with NADPH cofactor; for microsomal CLint at 5 μM: read-out: Clint, intrinsic clearance; for half-life at 5 μM: read-out: t1/2, microsomal half-life. Type of data set: in vitro ADME. How it is done:
To a microcentrifuge tube was added 1 mg/mL Mouse Liver Microsome (MLM), a NADPH generating system consisting of 1 mM NADP+, 1.5 mM MgCl2, 3.5 mM glucose-6-phosphate and 0.5 U/mL glucose-6-phosphate dehydrogenase, and phosphate buffer (pH 7.4) in a sufficient amount for a total volume of […]. After a 15 min preincubation at 37 °C in a water bath, the enzymatic reactions were started by adding 2 μL of a […] stock solution of each compound to be assessed, reaching a final concentration of 5 μM in the tested compound. , The samples were further incubated at 37 °C under stirring (30 rpm) for predetermined periods (0, 15, 30, 45, and 60 min), and 500 μL chilled MeOH and 500 μL chilled acetonitrile were added before the samples were homogenized and left standing in an ice bath to accelerate protein precipitation. The resulting mixture was centrifugated at 13000 rpm for 15 min at 4 °C, the organic layer was extracted and 2 μL internal standard (clonazepam 5 μM) was added. Finally, the samples were filtered through a PVDF filter (Millex 0.22 μm x 13 mm) and analyzed by HPLC-PDA. ,
(In general: Microsomes from liver hold many membrane-bound enzymes, among them those of drug oxidation.)

A further data set relates to L. infantum GSK-3B. Kind of data set: GSK-3B enzyme inhibition (LANCE TR-FRET). Type of data set: biochemical. The settings on record: concentrations up to 30 μM, 10 nM enzyme. As for the experimental part:
The following controls were included: protein in 1% DMSO (100% activity), 10 μM AZD-5438 (0% activity), and buffer without enzyme (blank).
To detect the progress of the enzymatic reaction, a commercially available TR-FRET-based assay (LANCE TR-FRET, PerkinElmer) was used. In the enzymatic step, purified protein kinase and the peptide substrate were incubated with compounds 1 – 6 for 30 min at 25 °C before the addition of ATP to start the reaction, which was run at 30 °C (2 h for GSK-3A or 1 h 15 min for GSK-3B). […]. […]
The fluorescence signal was measured using a CLARIOstar microplate reader (BMG LABTECH) set with an excitation wavelength of 320 nm and an emission wavelength of 665 nm. MARS software (BMG LABTECH) was used to analyze the data obtained after reading each plate. The background fluorescence signal (blank) was subtracted from the fluorescence signal obtained for each reaction, in order to reflect the specific signal of enzymatic activity. The data was then analyzed with the GraphPad Prism v10 software, using the equation “log(inhibitor) vs response - variable slope (four parameters) - Y = Bottom + (Top-Bottom)/(1 + 10̂((LogIC50-X)* HillSlope))” to obtain dose–response curves and determine IC50 values. […]

The test system of a further data set is L. braziliensis SOD. As to the kind of experiment: SOD interaction by differential scanning fluorimetry. The class given is binding, Leishmania braziliensis. As for the experimental part:
The assays were performed using an Applied Biosystems 7500 Fast RT-PCR system (Applied Biosystems, Foster City, CA, USA), in triplicate, with 96-well PCR plates (BioRad, Hercules, CA, USA) sealed with transparent capping strips (BioRad, Hercules, CA, USA). The plates were centrifugated for 2 min at 2000 rpm at 25 °C. The temperature was then ramped up from 25 to 85 °C, increasing 1 °C per minute, while fluorescence signals were monitored using SYPRO Orange dye, with an excitation wavelength of 492 nm and an emission wavelength of 610 nm.
The DSF conditions used in this study have been previously described. , Briefly, each well contained 10 μM L. braziliensis Hsp90 or 5 μM L. braziliensis SOD, 1 μL of 5X SYPRO Orange, buffer A (50 mM PBS, 100 mM NaCl, pH 7.0 for L. braziliensis SOD or 50 mM Tris-HCl, 100 mM KCl, pH 8.0 for L. braziliensis Hsp90), and either 1 μL DMSO (5% v/v, negative control) or 1 – 6 (diluted in DMSO). […] Raw fluorescence data was collected using the Applied Biosystems 7500 Fast Software v2.0 and then exported to NAMI for Tm calculation via the first-derivative method. Differences in Tm values (ΔTm) were considered statistically significant when p < 0.05, as determined by the Kruskal–Wallis test followed by Dunn’s post-test for multiple comparisons, performed using GraphPad Prism 10.0 (GraphPad Software, San Diego, CA, USA, www.graphpad.com).
(In general: In DSF a fluorescence change marks the thermal transition of the protein.)

Regarding `O=C(c1ccc(O)c(Cl)c1)N1CCN(c2cnccn2)CC1` [Compound 1, (3-Chloro-4-hydroxyphenyl)(4-(pyrazin-2-yl)piperazin-1-yl)methanone], the Papp at 0.2 mg/mL in data set [1] stood at 0.52 ×10⁻⁶ cm/s. In data set [2], the microsomal CLint at 5 μM is 1.23 µL/min/mg and the half-life at 5 μM was found to be 2.36 h. Besides, the “inhibition of L. infantum GSK-3B” value in the data set on L. infantum GSK-3B is recorded as “did not exert any inhibition”. In the data set on L. braziliensis SOD (100 μM to 12.5 μM), the “interaction with L. braziliensis SOD (DSF titration curves)” value was “neither of these compounds interacts”.
For the molecule `O=C(c1ccc(O)cc1)N1CCN(c2cnccn2)CC1` [Compound 2, (4-Hydroxyphenyl)(4-(pyrazin-2-yl)piperazin-1-yl)methanone], the Papp at 0.2 mg/mL in data set [1] amounted to 0.55 ×10⁻⁶ cm/s. For the same molecule, in data set [2], the microsomal CLint at 5 μM was found to be 0.55 µL/min/mg and the half-life at 5 μM came out at 5.25 h. In addition, in the data set on L. infantum GSK-3B, the “inhibition of L. infantum GSK-3B” value is reported as “no inhibitory effect”. In the data set on L. braziliensis SOD (100 μM), the “effect on Tm of L. braziliensis SOD (DSF)” value is reported as “failed to exert statistically significant effects”.
